From patent US4751295A, “Cephalosporin derivatives” (Bristol-Myers Company, priority 1986, dated 1988)
Values after ≈ are worked out from the molar mass of the structure shown. Counter-ions that a name gives are not always drawn. Like-named read-outs stand apart in the source and are kept apart here.

Tests used:
[1] = blood levels upon intramuscular administration to mice; type: in vivo; settings: mouse, im, 20 mg/kg
Method: Table 2, below, gives the Protective Dose50 (PD50) in mice for a number of the compounds of Formula I against selected microorganisms. Table 3 gives blood levels of various compounds of Formula I upon intramuscular administration of the test compounds to mice at a dosage of 20 mg/kg.

[2] = system: Penicillinsensitive S. aureus (5 strains); test: MIC, two-fold serial agar dilution, group (G+)-Ia; type: cell-based; settings: for MIC: Staphylococcus aureus, read-out: Geometric Mean of MIC, (G+)-Ia
Method: (§1) In the primary evaluation of the compounds of this invention, the Minimum Inhibitory Concentrations (MIC's) of the compounds were determined by the two-fold serial agar dilution method in Mueller-Hinton agar against 32 strains of test organisms in six groups.
(G+)Ia: Penicillinsensitive S. aureus (5 strains)

[3] = system: Penicillinresistant S. aureus (5 strains); test: MIC, two-fold serial agar dilution, group (G+)-Ib; type: cell-based; settings: Mueller-Hinton agar, 5 strains; for MIC: Staphylococcus aureus, read-out: Geometric Mean of MIC, (G+)-Ib
Method: as §1
(G+)Ib: Penicillinresistant S. aureus (5 strains)

[4] = system: Cephalothinsensitive E. coli (2 strains), Kl. pneumoniae (1 strain) and Pr. mirabilis (2 strains); test: MIC, two-fold serial agar dilution, group (G-)-Ia; type: cell-based; settings: Mueller-Hinton agar, 5 strains; for MIC: read-out: Geometric Mean of MIC, (G-)-Ia
Method: as §1
(G+)Ia: Cephalothinsensitive E. coli (2 strains), Kl. pneumoniae (1
strain) and Pr. mirabilis (2 strains)

[5] = system: Cephalothinresistant E. coli (3 strains) and Kl. pneumoniae (2 strains); test: MIC, two-fold serial agar dilution, group (G-)-Ib; type: cell-based; settings: 5 strains; for MIC: Escherichia coli, read-out: Geometric Mean of MIC, (G-)-Ib, Mueller-Hinton agar; for Geometric Mean of MIC, (G-)-Ib: Mueller-Hinton agar
Method: as §1
(G-)Ib: Cephalothinresistant E. coli (3 strains) and Kl. pneumoniae (2

[6] = system: M. morganii (1 strain), Ent. cloacae (2 strains) and Ser. marcescens (2 strains); test: MIC, two-fold serial agar dilution, group (G-)-II; type: cell-based; settings: Mueller-Hinton agar, 5 strains; for MIC: read-out: Geometric Mean of MIC, (G-)-II
Method: as §1
(G-)II: M. morganii (1 strain), Ent. cloacae (2 strains) and Ser.

[7] = system: Ps. aeruginosa (7 strains); test: MIC, two-fold serial agar dilution, group (G-)-III; type: cell-based; settings: Mueller-Hinton agar; for MIC: Pseudomonas aeruginosa, read-out: Geometric Mean of MIC, (G-)-III
Method: as §1
(G-)III: Ps. aeruginosa (7 strains)

SMILES	MIC [3] [µg/mL]	MIC [4] [µg/mL]	MIC [5] [µg/mL]	MIC [6] [µg/mL]	MIC [7] [µg/mL]	MIC ([2]; Mueller-Hinton agar, 5 strains) [µg/mL]	also measured
CON=C(C(=O)NC1C(=O)N2C(C(=O)[O-])=C(C=CC[N+](C)(C)C)CS[C@H]12)c1nsc(N)n1 (stereo partly drawn) [Compound I-1D, 7-[2-(5-Amino-1,2,4-thiadiazol-3-yl)-2-methoxyiminoacetamido]-3-(3-trimethylammonio-1-propen-1-yl)-3-cephem-4-carboxylate]	–	–	–	–	–	–	AUC [1]: 11000 ng·h/mL; Cmax [1]: 20000 ng/mL; half-life [1]: 19 min
CON=C(C(=O)NC1C(=O)N2C(C(=O)[O-])=C(/C=C/C[n+]3cccc(N)c3)CSC12)c1nsc(N)n1 (stereo not drawn) [Compound I-1E, 7-[2-(5-Amino-1,2,4-thiadiazol-3-yl)-2-methoxyiminoacetamido]-3-[3-(3-aminopyridinio)-1-propen-1-yl]-3-cephem-4-carboxylate]	0.4 (≈ 0.774 µM)	0.0094 (≈ 0.0182 µM)	0.029 (≈ 0.0561 µM)	0.1 (≈ 0.194 µM)	1.4 (≈ 2.71 µM)	–	MIC [2]: 0.2 µg/mL (≈ 0.387 µM)
CON=C(C(=O)NC1C(=O)N2C(C(=O)[O-])=C(/C=C/C[n+]3cccc(NC=O)c3)CSC12)c1nsc(N)n1 (stereo not drawn) [Compound I-1F, 7-[2-(5-Amino-1,2,4-thiadiazol-3-yl)-2-methoxyiminoacetamido]-3-[3-(3-formylaminopyridinio)-1-propen-1-yl]-3-cephem-4-carboxylate]	0.4 (≈ 0.735 µM)	0.0094 (≈ 0.0173 µM)	0.033 (≈ 0.0606 µM)	0.099 (≈ 0.182 µM)	1.2 (≈ 2.2 µM)	0.15 (≈ 0.275 µM)	–
CON=C(C(=O)NC1C(=O)N2C(C(=O)[O-])=C(/C=C/C[n+]3cccc(CN)c3)CSC12)c1nsc(N)n1 (stereo not drawn) [Compound I-1I, 7-[2-(5-Amino-1,2,4-thiadiazol-3-yl)-2-methoxyiminoacetamido]-3-[3-(3-aminomethylpyridinio)-1-propen-1-yl]-3-cephem-4-carboxylate]	1.6 (≈ 3.02 µM)	0.1 (≈ 0.188 µM)	0.2 (≈ 0.377 µM)	0.69 (≈ 1.3 µM)	3.1 (≈ 5.84 µM)	0.8 (≈ 1.51 µM)	–
CON=C(C(=O)NC1C(=O)N2C(C(=O)[O-])=C(/C=C/C[n+]3ccc(CO)cc3)CSC12)c1nsc(N)n1 (stereo not drawn) [Compound I-1L, 7-[2-(5-Amino-1,2,4-thiadiazol-3-yl)-2-methoxyiminoacetamido]-3-[3-(4-hydroxymethylpyridinio)-1-propen-1-yl]-3-cephem-4-carboxylate]	0.61 (≈ 1.15 µM)	0.029 (≈ 0.0546 µM)	0.088 (≈ 0.166 µM)	0.15 (≈ 0.282 µM)	2.6 (≈ 4.89 µM)	0.26 (≈ 0.489 µM)	–
CON=C(C(=O)NC1C(=O)N2C(C(=O)[O-])=C(/C=C/C[n+]3cccc(CC(=O)O)c3)CSC12)c1nsc(N)n1 (stereo not drawn) [Compound I-1P, 7-[2-(5-Amino-1,2,4-thiadiazol-3-yl)-2-methoxyiminoacetamido]-3-[3-(3-carboxymethylpyridinio)-1-propenyl]-3-cephem-4-carboxylate]	1.6 (≈ 2.86 µM)	0.013 (≈ 0.0232 µM)	0.087 (≈ 0.155 µM)	0.34 (≈ 0.608 µM)	14 (≈ 25 µM)	0.8 (≈ 1.43 µM)	–
CON=C(C(=O)NC1C(=O)N2C(C(=O)[O-])=C(/C=C/C[n+]3ccc(SCC(=O)O)cc3)CSC12)c1nsc(N)n1 (stereo not drawn) [Compound I-1Q, 7-[2-(5-Amino-1,2,4-thiadiazol-3-yl)-2-methoxyiminoacetamido]-3-[3-(4-carboxymethylthiopyridinio)-1-propenyl]-3-cephem-4-carboxylate]	0.92 (≈ 1.55 µM)	0.0095 (≈ 0.0161 µM)	0.044 (≈ 0.0744 µM)	0.23 (≈ 0.389 µM)	14 (≈ 23.7 µM)	0.7 (≈ 1.18 µM)	–
CCON=C(C(=O)NC1C(=O)N2C(C(=O)[O-])=C(/C=C/C[n+]3ccc(C(N)=O)cc3)CSC12)c1nsc(N)n1 (stereo not drawn) [Compound I-2H, 7-[2-(5-Amino-1,2,4-thiadiazol-3-yl)-2-ethoxyiminoacetamido]-3-[3-(4-carbamoylpyridinio)-1-propen-1-yl]-3-cephem-4-carboxylate]	0.4 (≈ 0.716 µM)	0.014 (≈ 0.0251 µM)	0.057 (≈ 0.102 µM)	0.15 (≈ 0.269 µM)	1.4 (≈ 2.51 µM)	–	MIC [2]: 0.2 µg/mL (≈ 0.358 µM)
CON=C(C(=O)NC1C(=O)N2C(C(=O)[O-])=C(C=CC[N+]3(C)CCCC3)CSC12)c1nsc(N)n1 (stereo not drawn) [I-1A E/Z = 1/1, 7-[2-(5-Amino-1,2,4-thiadiazol-3-yl)-2-methoxyiminoacetamido]-3-[3-(1-methylpyrrolidinio)-1-propen-1-yl]-3-cephem-4-carboxylate]	0.7 (≈ 1.38 µM)	0.05 (≈ 0.0985 µM)	–	0.23 (≈ 0.453 µM)	2.4 (≈ 4.73 µM)	0.26 (≈ 0.512 µM)	Geometric Mean of MIC, (G-)-Ib [5]: 0.15 µg/mL
CON=C(C(=O)NC1C(=O)N2C(C(=O)[O-])=C(C=CC[N+]3(C)CCCC3)CSC12)c1nsc(N)n1 (stereo not drawn) [I-1A E/Z = 7/1, 7-[2-(5-Amino-1,2,4-thiadiazol-3-yl)-2-methoxyiminoacetamido]-3-[3-(1-methylpyrrolidinio)-1-propenyl]-3-cephem-4-carboxylate sulfate]	–	–	–	–	–	–	Geometric Mean of MIC, (G+)-Ia ([2]; Mueller-Hinton agar, 5 strains, sulfate): 0.13 µg/mL; Geometric Mean of MIC, (G+)-Ib ([3]; sulfate): 0.35 µg/mL; Geometric Mean of MIC, (G-)-Ia ([4]; sulfate): 0.029 µg/mL; Geometric Mean of MIC, (G-)-Ib ([5]; sulfate): 0.05 µg/mL; Geometric Mean of MIC, (G-)-II ([6]; sulfate): 0.17 µg/mL; Geometric Mean of MIC, (G-)-III ([7]; sulfate): 1.4 µg/mL
CON=C(C(=O)NC1C(=O)N2C(C(=O)[O-])=C(/C=C/C[n+]3ccccc3)CSC12)c1nsc(N)n1 (stereo not drawn) [I-1B E, 7-[2-(5-Amino-1,2,4-thiadiazol-3-yl)-2-methoxyiminoacetamido]-3-[3-pyridinio-1-propen-1-yl]-3-cephem-4-carboxylate]	0.4 (≈ 0.798 µM)	0.016 (≈ 0.0319 µM)	0.044 (≈ 0.0877 µM)	0.11 (≈ 0.219 µM)	1.6 (≈ 3.19 µM)	–	MIC [2]: 0.2 µg/mL (≈ 0.399 µM)
CON=C(C(=O)NC1C(=O)N2C(C(=O)[O-])=C(C=CC[N+](C)(C)C)CS[C@H]12)c1nsc(N)n1 (stereo partly drawn) [I-1D E/Z = 1/1, 7-[2-(5-Amino-1,2,4-thiadiazol-3-yl)-2-methoxyiminoacetamido]-3-(3-trimethylammonio-1-propen-1-yl)-3-cephem-4-carboxylate]	–	0.1 (≈ 0.208 µM)	–	0.46 (≈ 0.955 µM)	2.4 (≈ 4.98 µM)	–	Geometric Mean of MIC, (G+)-Ia ([2]; Mueller-Hinton agar, 5 strains): 0.61 µg/mL; Geometric Mean of MIC, (G+)-Ib [3]: 1.4 µg/mL; Geometric Mean of MIC, (G-)-Ib [5]: 0.26 µg/mL
CON=C(C(=O)NC1C(=O)N2C(C(=O)[O-])=C(C=CC[N+](C)(C)C)CS[C@H]12)c1nsc(N)n1 (stereo partly drawn) [I-1D E/Z = 10/1, 7-[2-(5-Amino-1,2,4-thiadiazol-3-yl)-2-methoxyiminoacetamido]-3-[3-trimethylammonio-1-propenyl]-3-cephem-4-carboxylate]	–	–	–	–	–	–	Geometric Mean of MIC, (G+)-Ia ([2]; Mueller-Hinton agar, 5 strains): 0.30 µg/mL; Geometric Mean of MIC, (G+)-Ib [3]: 0.53 µg/mL; Geometric Mean of MIC, (G-)-Ia [4]: 0.05 µg/mL; Geometric Mean of MIC, (G-)-Ib [5]: 0.076 µg/mL; Geometric Mean of MIC, (G-)-II [6]: 0.26 µg/mL; Geometric Mean of MIC, (G-)-III [7]: 1.3 µg/mL
CCO/N=C(\C(=O)NC1C(=O)N2C(C(=O)[O-])=C(/C=C/C[n+]3ccc(C(=O)O)cc3)CSC12)c1nsc(N)n1 (stereo not drawn) [I-2N E, 7-[2-(5-Amino-1,2,4-thiadiazol-3-yl)-2-(Z)-ethoxyiminoacetamido]-3-[3-(4-carboxypyridinio)-1-propenyl]-3-cephem-4-carboxylate]	2.1 (≈ 3.75 µM)	0.016 (≈ 0.0286 µM)	0.11 (≈ 0.197 µM)	0.35 (≈ 0.625 µM)	4.7 (≈ 8.4 µM)	1.2 (≈ 2.14 µM)	–
CCO/N=C(\C(=O)NC1C(=O)N2C(C(=O)[O-])=C(/C=C\C[n+]3ccc(C(=O)O)cc3)CSC12)c1nsc(N)n1 (stereo not drawn) [I-2N Z, 7-[2-(5-Amino-1,2,4-thiadiazol-3-yl)-2-(Z)-ethoxyiminoacetamido]-3-[3-(4-carboxypyridinio)-1-propenyl]-3-cephem-4-carboxylate]	3.1 (≈ 5.54 µM)	0.044 (≈ 0.0786 µM)	0.15 (≈ 0.268 µM)	0.69 (≈ 1.23 µM)	10 (≈ 17.9 µM)	1.4 (≈ 2.5 µM)	–
